Measured values published in patent publication US9458176B2, “Tetrahydroimidazo(1,5-D)[1,4]oxazepine derivative” (Eisai R&D Management Co., Ltd., priority 2013, dated 2016).

Molecular target: human mGluR2 (Homo sapiens (Human), UniProt Q14416)
Assay: [35S]GTPγS binding assay (Affinity to mGluR2)
Assay type: biochemical
Conditions: cell membrane fraction of HEK293 cells stably expressing human mGluR2; glutamic acid 10 μM; inhibition of specific [35S]GTPγS binding
Summary of the method: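 Membranes from HEK293 cells stably co-expressing human mGluR2 and SLC1A3 (1.8–3 μg protein) preincubated with compound 30 min at RT, then stimulated with 10 μM glutamate 15 min; [35S]GTPγS (0.8 kBq) with WGA-SPA beads 1 h, buffer with 3 μM GDP, 100 mM NaCl, 1 mM MgCl2. IC50 from inhibition of glutamate-specific binding.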

Chain of human mGluR2 (Q14416 19-872): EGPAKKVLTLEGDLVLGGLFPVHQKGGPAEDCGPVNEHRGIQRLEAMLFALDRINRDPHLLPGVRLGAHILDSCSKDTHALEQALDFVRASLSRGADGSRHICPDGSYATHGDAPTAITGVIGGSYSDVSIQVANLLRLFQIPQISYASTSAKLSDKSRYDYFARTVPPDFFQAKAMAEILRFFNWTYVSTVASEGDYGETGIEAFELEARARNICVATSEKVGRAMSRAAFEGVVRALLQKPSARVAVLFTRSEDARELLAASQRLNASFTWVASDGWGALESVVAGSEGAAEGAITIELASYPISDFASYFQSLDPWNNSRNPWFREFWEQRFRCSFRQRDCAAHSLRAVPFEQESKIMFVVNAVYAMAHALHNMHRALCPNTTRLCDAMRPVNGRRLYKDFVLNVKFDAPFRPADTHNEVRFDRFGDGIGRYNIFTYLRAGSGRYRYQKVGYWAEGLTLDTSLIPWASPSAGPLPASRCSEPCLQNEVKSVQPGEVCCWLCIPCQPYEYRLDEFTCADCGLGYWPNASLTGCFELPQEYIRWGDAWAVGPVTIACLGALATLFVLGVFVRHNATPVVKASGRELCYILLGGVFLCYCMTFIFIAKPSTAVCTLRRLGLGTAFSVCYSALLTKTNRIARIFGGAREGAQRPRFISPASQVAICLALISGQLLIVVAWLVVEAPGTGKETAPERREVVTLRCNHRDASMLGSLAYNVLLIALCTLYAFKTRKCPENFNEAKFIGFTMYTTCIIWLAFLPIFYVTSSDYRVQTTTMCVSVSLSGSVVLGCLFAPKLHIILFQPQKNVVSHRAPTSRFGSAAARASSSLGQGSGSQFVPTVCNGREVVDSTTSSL

IC50 | SMILES
60.6 nM | Cc1cc(-c2nc(-c3ccc(OCC4CC4)c(Cl)c3)n3c2CCOCC3)cc(C)n1 [Example 217]
78.8 nM | Cc1cc(-c2nc(-c3ccc(OCC(F)F)c(Cl)c3)n3c2CCOCC3)cc(C)n1 [Example 218]
7.9 nM | CCOc1cc(-c2nc(-c3ccnc(C)c3)c3n2C[C@@H](C)OCC3)ccc1CC [Example 219]
5.9 nM | CCOc1cc(-c2nc(-c3cc(C)nc(C)c3)c3n2C[C@@H](C)OCC3)ccc1CC [Example 220]
26.7 nM | CCc1ccc(-c2nc(-c3ccnc(C)c3)c3n2C[C@@H](C)OCC3)cc1OCC1CC1 [Example 221]
17.2 nM | CCc1ccc(-c2nc(-c3cc(C)nc(C)c3)c3n2C[C@@H](C)OCC3)cc1OCC1CC1 [Example 222]
16.7 nM | CCOc1cc(-c2nc(-c3ccnc(C)c3)c3n2C[C@@H](C)OCC3)ccc1C [Example 223]
50.4 nM | Cc1cc(-c2nc(-c3ccc(C)c(OCC4CC4)c3)n3c2CCO[C@H](C)C3)ccn1 [Example 224]
3.9 nM | CCOc1cc(-c2nc(-c3cc(C)nc(C)c3)c3n2C[C@@H](C)OCC3)ccc1C [Example 225]
10.5 nM | Cc1cc(-c2nc(-c3ccc(C)c(OCC4CC4)c3)n3c2CCO[C@H](C)C3)cc(C)n1 [Example 226]
22 nM | Cc1cc(-c2nc(-c3ccc(C)c(OCC(C)C)c3)n3c2CCO[C@H](C)C3)cc(C)n1 [Example 227]
82 nM | Cc1cc(-c2nc(-c3ccc(C)c(OCC4CCOCC4)c3)n3c2CCO[C@H](C)C3)cc(C)n1 [Example 228]
18 nM | Cc1cc(-c2nc(-c3ccc(OC(F)(F)F)c(CO)c3)n3c2CCO[C@H](C)C3)cc(C)n1 [Example 229]
19.8 nM | Cc1cc(-c2nc(-c3ccc(OC(F)(F)F)c(CO)c3)n3c2CCO[C@H](C)C3)ccn1 [Example 230]
2.4 nM | Cc1cc(-c2nc(-c3ccc(OC(F)(F)F)c(CF)c3)n3c2CCO[C@H](C)C3)cc(C)n1 [Example 231]
9.7 nM | Cc1cc(-c2nc(-c3ccc(OC4COC4)c(Cl)c3)n3c2CCO[C@H](C)C3)cc(C)n1 [Example 232]
2 nM | Cc1cc(-c2nc(-c3ccc(OC(F)F)c(Cl)c3)n3c2CCO[C@H](CF)C3)cc(C)n1 [Example 233]
1.9 nM | Cc1cc(-c2nc(-c3ccc(OC(F)F)c(CF)c3)n3c2CCO[C@H](C)C3)cc(C)n1 [Example 234]
21.7 nM | Cc1cc(-c2nc(-c3ccc(OC(F)F)c(CO)c3)n3c2CCO[C@H](C)C3)cc(C)n1 [Example 235]
2.9 nM | Cc1cc(-c2nc(-c3ccc(OC(F)F)c(CF)c3)n3c2CCO[C@H](C)C3)ccn1 [Example 236]
30.3 nM | Cc1cc(-c2nc(-c3ccc(OC(F)F)c(CO)c3)n3c2CCO[C@H](C)C3)ccn1 [Example 237]
36.8 nM | Cc1cc(-c2nc(-c3ccc(Cl)c(CF)c3)n3c2CCO[C@H](C)C3)cc(C)n1 [Example 238]
11.9 nM | Cc1cc(-c2nc(-c3ccc(OCCF)c(Cl)c3)n3c2CCO[C@H](C)C3)cc(C)n1 [Example 239]
46.9 nM | COc1cc(-c2nc(-c3ccnc(C)c3)c3n2C[C@@H](C)OCC3)ccc1C(C)(F)F [Example 240]
2.9 nM | CCOc1ccc(-c2nc(-c3cc(C)nc(C)c3)c3n2C[C@@H](C)OCC3)cc1C [Example 241]
2.4 nM | Cc1cc(-c2nc(-c3ccc(OC(C)C)c(C)c3)n3c2CCO[C@H](C)C3)cc(C)n1 [Example 242]
1.7 nM | CCOc1ccc(-c2nc(-c3cc(C)nc(C)c3)c3n2C[C@@H](CF)OCC3)cc1C [Example 243]
1.8 nM | Cc1cc(-c2nc(-c3ccc(OC(C)C)c(C)c3)n3c2CCO[C@H](CF)C3)cc(C)n1 [Example 244]
5.2 nM | COc1ccc(-c2nc(-c3cc(C)nc(C)c3)c3n2C[C@@H](CF)OCC3)cc1C [Example 245]

More lines, now with the values behind:

SMILES | IC50
Cc1cc(-c2nc(-c3ccc(OC(F)(F)F)c(C#N)c3)n3c2CCO[C@H](CF)C3)cc(C)n1 [Example 195] | 3.7 nM
Cc1cc(-c2nc(-c3ccc(OC(F)(F)F)c(C#N)c3)n3c2CCO[C@H](CF)C3)ccn1 [Example 196] | 3.8 nM
Cc1cc(-c2nc(-c3ccc(C(F)F)c(Cl)c3)n3c2CCO[C@H](CF)C3)cc(C)n1 [Example 197] | 15.1 nM
Cc1cc(-c2nc(-c3ccc(OC(F)(F)F)c(C)c3)n3c2CCOCC3)cc(CF)n1 [Example 198] | 13.2 nM
Cc1cc(-c2nc(-c3ccc(OC(F)F)c(C)c3)n3c2CCO[C@H](C)C3)cc(CF)n1 [Example 199] | 5.2 nM
COc1cc(-c2nc(-c3cc(C)nc(CF)c3)c3n2C[C@@H](C)OCC3)ccc1C(F)(F)F [Example 200] | 4.4 nM
COc1cc(-c2nc(-c3cc(C)nc(CF)c3)c3n2C[C@@H](CF)OCC3)ccc1C(F)(F)F [Example 201] | 2.4 nM
Cc1cc(-c2nc(-c3ccc(OC(F)(F)F)c(F)c3)n3c2CCO[C@H](CF)C3)cc(CF)n1 [Example 202] | 14 nM
Cc1cc(-c2nc(-c3ccc(OC(F)(F)F)c(C#N)c3)n3c2CCO[C@H](C)C3)cc(CF)n1 [Example 203] | 4.9 nM
Cc1cc(-c2nc(-c3ccc(OC(F)(F)F)c(C)c3)n3c2CCO[C@H](C)C3)cc(CF)n1 [Example 204] | 4 nM
Cc1cc(-c2nc(-c3ccc(OC4CC4)c(Cl)c3)n3c2CCO[C@H](C)C3)cc(CF)n1 [Example 205] | 5.3 nM
Cc1cc(-c2nc(-c3ccc(OC(F)(F)F)c(F)c3)n3c2CCO[C@H](C)C3)cc(CF)n1 [Example 206] | 18.7 nM
Cc1cc(-c2nc(-c3ccc(OC(F)F)c(C)c3)n3c2CCO[C@H](CF)C3)cc(CF)n1 [Example 207] | 6 nM
Cc1cc(-c2nc(-c3ccc(OC4CC4)c(C)c3)n3c2CCO[C@H](C)C3)cc(CF)n1 [Example 208] | 4.7 nM
COc1cc(-c2nc(-c3cc(C)nc(CF)c3)c3n2C[C@@H](CF)OCC3)ccc1OC(F)F [Example 209] | 5.1 nM
COc1ccc(-c2nc(-c3cc(C)nc(CF)c3)c3n2C[C@@H](C)OCC3)cc1OC(F)(F)F [Example 210] | 4.7 nM
Cc1cc(-c2nc(-c3ccc(OC(F)(F)F)c(CF)c3)n3c2CCOCC3)cc(C)n1 [Example 211] | 27.1 nM
Cc1cc(-c2nc(-c3ccc(Cl)c(OC(F)F)c3)n3c2CCOCC3)cc(C)n1 [Example 212] | 72.5 nM
CCOc1cc(-c2nc(-c3cc(C)nc(C)c3)c3n2CCOCC3)ccc1CC [Example 213] | 10.7 nM
CCOc1cc(-c2nc(-c3ccnc(C)c3)c3n2CCOCC3)ccc1CC [Example 214] | 21 nM
Cc1cc(-c2nc(-c3ccc(OC(F)F)c(Cl)c3)n3c2CCOCC3)cc(C)n1 [Example 215] | 58.1 nM
CCOc1ccc(-c2nc(-c3cc(C)nc(C)c3)c3n2CCOCC3)cc1Cl [Example 216] | 48 nM
